Reference: the supplement of paper PMC10307832

Experiments:
Experiment in all cases: relative viability (nuclei count vs DMSO), 5 days (fraction); higher = more cells survive
[1] = compound: CC1=C(N=C(N=C1N)[C@H](CC(=O)N)NC[C@@H](C(=O)N)N)C(=O)N[C@@H]([C@H](C2=CN=CN2)OC3C(C(C(C(O3)CO)O)O)OC4C(C(C(C(O4)CO)O)OC(=O)N)O)C(=O)N[C@H](C)[C@H]([C@H](C)C(=O)N[C@@H]([C@@H](C)O)C(=O)NCCC5=NC(=CS5)C6=NC(=CS6)C(=O)NCCC[S+](C)C)O [Bleomycin]; settings: main component drawn
Outline: (§1)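 Five library-drug doses, separated by factors of √10, were pinned into 1536-well plates holding lung cancer cell lines after an overnight stay at 37 °C. Cells were fixed, permeabilised and Hoechst-stained in one step after 5 days without medium change, then imaged at 4×. Viability compares treated-well with vehicle-well nuclei, counted in MetaXpress, as a median across plates. Passing plates had control CV below 25% and at least one doubling.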

[2] = compound: COc1cc([C@@H]2c3cc4c(cc3[C@@H](O[C@@H]3O[C@@H]5CO[C@@H](C)O[C@H]5[C@H](O)[C@H]3O)[C@H]3COC(=O)[C@H]23)OCO4)cc(OC)c1O [Etoposide]
Outline: as §1

[3] = compound: CC1=C(N=C(N=C1N)[C@H](CC(=O)N)NC[C@@H](C(=O)N)N)C(=O)N[C@@H]([C@H](C2=CN=CN2)OC3C(C(C(C(O3)CO)O)O)OC4C(C(C(C(O4)CO)O)OC(=O)N)O)C(=O)N[C@H](C)[C@H]([C@H](C)C(=O)N[C@@H]([C@@H](C)O)C(=O)NCCC5=NC(=CS5)C6=NC(=CS6)C(=O)NCCC[S+](C)C)O [Bleomycin] + CC1(C)CCC(c2ccc(Cl)cc2)=C(CN2CCN(c3ccc(C(=O)NS(=O)(=O)c4ccc(N[C@H](CCN5CCOCC5)CSc5ccccc5)c(S(=O)(=O)C(F)(F)F)c4)cc3)CC2)C1 [Navitoclax] (partner 0.5 µM); settings: main component drawn
Outline: (§2)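 Each reported value is a median over duplicate plates. It expresses relative viability: treated-well nuclei count divided by vehicle-well nuclei count. Lung cancer cell lines in 1536-well plates were dosed by pin tool a day after seeding, alone with one drug or with a fixed anchor-drug dose plus five library-drug doses (not always all listed) in √10 steps, and nuclei were counted after 5 days.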

[4] = compound: COc1cc([C@@H]2c3cc4c(cc3[C@@H](O[C@@H]3O[C@@H]5CO[C@@H](C)O[C@H]5[C@H](O)[C@H]3O)[C@H]3COC(=O)[C@H]23)OCO4)cc(OC)c1O [Etoposide] + N=C(N)NC(=N)NCCc1ccccc1 [Phenformin] (partner 250 µM)
Outline: as §2

Cell Line	relative viability ([1]; 0.01 µM)	relative viability ([1]; 0.03162 µM)	relative viability ([1]; 0.1 µM)	relative viability ([1]; 0.3162 µM)	relative viability ([1]; 1 µM)	relative viability ([2]; 0.01 µM)	relative viability ([2]; 0.03162 µM)	relative viability ([2]; 0.1 µM)	relative viability ([2]; 0.3162 µM)	relative viability ([2]; 1 µM)	relative viability ([3]; first compound 0.01 µM)	relative viability ([3]; first compound 0.03162 µM)	relative viability ([3]; first compound 0.1 µM)	relative viability ([3]; first compound 0.3162 µM)	relative viability ([3]; first compound 1 µM)	relative viability ([4]; first compound 0.01 µM)	relative viability ([4]; first compound 0.03162 µM)	relative viability ([4]; first compound 0.1 µM)	relative viability ([4]; first compound 0.3162 µM)	relative viability ([4]; first compound 1 µM)
COR-L 105	0.943	0.87	0.759	0.556	0.404	0.979	0.98	0.638	0.823	0.662	0.59	0.884	0.716	0.483	0.28	0.664	0.53	0.405	0.444	0.39
LK-2	0.686	0.575	0.485	0.28	0.277	0.979	1.31	0.684	0.663	0.268	0.478	0.537	0.415	0.214	0.239	0.563	0.641	0.368	0.319	0.172
201T	0.909	0.95	0.922	0.756	0.634	0.906	0.988	0.845	0.881	0.526	1.17	1.13	1.18	1.16	1.04	0.45	0.51	0.381	0.368	0.322
HCC-44	0.587	0.445	0.361	0.226	0.209	1.06	1.03	1.02	0.899	0.594	0.674	0.323	0.278	0.161	0.191	0.215	0.156	0.134	0.198	0.112
NCI-H647	0.397	0.369	0.237	0.125	0.0764	0.815	1.07	0.815	0.442	0.195	0.408	0.263	0.203	0.0968	0.0761	0.386	0.592	0.509	0.245	0.094
H3255	0.837	1.02	0.821	0.61	0.502	0.962	1.09	0.73	0.725	0.433	0.395	0.596	0.495	0.229	0.179	0.35	0.404	0.353	0.322	0.305
NCI-H2023	0.698	0.68	0.517	0.21	0.142	0.868	1.02	0.599	0.465	0.148	0.723	0.72	0.519	0.244	0.148	0.403	0.385	0.307	0.198	0.107
NCI-H2347	0.915	1.03	0.918	0.461	0.558	1	1.01	0.733	0.541	0.45	0.75	0.883	0.663	0.259	0.402	0.39	0.446	0.345	0.247	0.294
NCI-H1944	0.53	0.481	0.397	0.232	0.184	0.973	1.13	0.729	0.522	0.273	0.762	0.77	0.594	0.423	0.233	0.189	0.275	0.213	0.148	0.123
NCI-H1793	0.817	0.772	0.754	0.293	0.226	0.813	1.12	–	0.758	0.334	0.355	0.404	0.298	0.177	0.163	0.329	0.47	–	0.394	0.159
NCI-H596	0.775	0.754	0.637	0.377	0.412	0.866	1.03	0.685	0.877	0.734	0.648	0.534	0.312	0.276	0.305	0.774	0.875	0.584	0.788	0.522
A549	0.843	0.789	0.608	0.132	0.0828	0.875	0.947	0.476	0.281	0.131	0.933	0.827	0.54	0.127	0.0446	0.2	0.121	0.116	0.0719	0.0368
NCI-H520	0.901	0.92	0.816	0.747	0.602	0.881	0.879	0.636	0.87	0.709	0.858	0.957	1.1	0.927	0.656	0.487	0.585	–	0.619	0.502
EKVX	0.928	0.898	0.797	0.374	0.321	0.998	1.01	0.637	0.741	0.377	0.75	0.925	0.842	0.424	0.285	0.262	0.271	0.196	0.254	0.178
